In patent US11534410B2, “Amphotericin loaded PEGylated lipid nanoparticles and methods of use” (University of Mississippi, priority 2018, dated 2022):
In brackets after ≈: the same amount, converted by molar mass. Read-outs that look alike come from different tables or passages of the source.

Key:
[1] = system: wild type (WT) Candida albicans (ATCC90028); assay: Microdilution (CLSI) and recovery assay, antifungal/fungicidal activity; type: cell-based; conditions: for MFC: recovery assay
Experimental: FIG. 5: Antifungal activity of amphotericin B formulations. […] Each formulation was tested at 5.0-0.01 μg/ml with 2-fold dilutions. Color bar represents relative growth. A. Antifungal activity on Day 1 post AmB formulation in wild type (WT) Candida. B. & C. Antifungal activity on Day 10 post AmB formulation in WT and AmB resistant Candida strains, respectively. Each experiment was performed in triplicates.
In vitro fungicidal activity: A microdilution experiment was performed in wild type (WT) Candida albicans (ATCC90028) and Aspergillus fumigatus (ATCC 204305) as per Clinical & Laboratory Standards Institute (CLSI) protocols^37-39. […] Recovery assay was performed for fungicidal activity at both day 1 and day 10 post preparation.

[2] = cited from earlier work
[3] = system: AmB resistant Candida strain (ATCC 200955); assay: Microdilution and fungicidal assay, AmB resistant strain; type: cell-based, Candida albicans; conditions: Day10
Experimental: Each formulation was tested at 5.0-0.01 μg/ml with 2-fold dilutions. […] B. & C. Antifungal activity on Day 10 post AmB formulation in WT and AmB resistant Candida strains, respectively. Each experiment was performed in triplicates.

[4] = Lipid screening: solubility/dispersibility of amphotericin B in lipids; type: physicochemical
Experimental: Lipid screening is a crucial step, in order to select the lipids with the highest drug solubility and/or dispersibility. Amphotericin B (1 mg) was added to the lipid at 75° C., upon stirring at 2000 rpm for 10 mins, and observed with naked eye as well as under the microscope for precipitation/aggregation. Amphotericin B has a relatively higher solubility at elevated temperature in Precirol™ ATO 5 (glyceryl palmitostearate) in comparison with the other lipids, such as Compritol® ATO 888 (glyceryl behenate), stearic acid, glyceryl mono stearate (GMS) and glyceryl di-stearate (Table 1). […] While screening liquid lipids, amphotericin B better dispersed/solubilized in castor oil (Table 1).

[5] = system: retinal pigmented epithelial cells (ATCC ARPE-19); type: cell-based
Experimental: In vitro cytotoxicity evaluation: The placebo (no Amphotericin B) formulations PEG-NLC and NLC alone were tested for cytotoxicity towards the retinal pigmented epithelial cells (ATCC ARPE-19) in a concentration range of 0.03%-1%. […] They were not cytotoxic to ARPE-19 cells up to a highest concentration of 30 μg/mL, indicating a high therapeutic index.

[6] = amphotericin B (1 mg) added to the solid lipid at 75° C., 2000 rpm for 10 mins

Molecule: C[C@@H]1[C@H](O)[C@@H](C)/C=C/C=C/C=C/C=C/C=C/C=C/C=C/[C@H](O[C@@H]2O[C@H](C)[C@@H](O)[C@H](N)[C@@H]2O)C[C@@H]2O[C@](O)(C[C@@H](O)C[C@@H](O)[C@H](O)CC[C@@H](O)C[C@@H](O)CC(=O)O[C@H]1C)C[C@H](O)[C@H]2C(=O)O [AmB, Amphotericin B]
- MIC ([1]; Day1 post preparation): 0.62/0.62 μg/mL
- MFC ([1]; Day1 post preparation): 1.25/1.25 μg/mL
- MIC ([1]; Day10 post preparation): 0.62/0.62 μg/mL
- MFC ([1]; Day10 post preparation): 1.25/1.25 μg/mL
- log P [2]: 0.8
- solubility in water, methanol, and ethanol [2]: practically insoluble
- MFC [3]: 2.5 µg/mL (≈ 2.71 µM)
- MIC [3]: 2.5 µg/mL (≈ 2.71 µM)

Molecule: CCCCCCCCCCCCCC(=O)OCC(COC(=O)CCCCCCCCCCCCC)OC(=O)CCCCCCCCCCCCC [Dynasan 114, glyceryl trimyristate]
- Solubility/Dispersion (Solid Lipid) [4, 6]: −

Molecule: CCCCCCCCCCCCCCCC(=O)OCC(COC(=O)CCCCCCCCCCCCCCC)OC(=O)CCCCCCCCCCCCCCC [Dynasan 116, glyceryl tripalmitate]
- Solubility/Dispersion (Solid Lipid) [4, 6]: −

Molecule: CCCCCCCCCCCCCCCCCC(=O)OCC(O)CO (stereo not shown) [GMS, glyceryl mono stearate]
- Solubility/Dispersion (Solid Lipid) [4]: −

Molecule: CCCCCCCC/C=C\CCCCCCCC(=O)O [Oleic acid]
- Solubility/Dispersion (Liquid Lipid) [4]: −

Molecule: Castor Oil
- Solubility/Dispersion (Liquid Lipid) [4]: +

Molecule: Sesame Oil
- Solubility/Dispersion (Liquid Lipid) [4]: −

Molecule: Soy bean oil
- Solubility/Dispersion (Liquid Lipid) [4]: −

Molecule: benzalkonium chloride
- IC50 (cytotoxicity) [5]: 3.9 µg/mL
